Consider 25 molecules from patent US10047098B2, “C5-C6-oxacyclic fused iminopyrimidinone compounds as bace inhibitors, compositions, and their use” (Merck Sharp & Dohme Corp., priority 2014, dated 2018).

The target of assay [1] is purified human autoBACE-2 (Homo sapiens (Human), UniProt Q9Y5Z0). Kind of assay: BACE-2 Assay (BACE-HTRF assay). It counts as biochemical. The following applies: Ki calculated from IC50 using the Cheng-Prusoff equation; QSY7-EISEVNLDAEFC-Eu-amide substrate, pH 5.0. An outline of the steps: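 Endpoint proteolysis of a QSY7/europium FRET peptide by purified human autoBACE-2, 5% DMSO final, read by time-resolved fluorescence at 620 nm after 320 nm excitation.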

Assay [2] deals with Recombinant human soluble BACE1 catalytic domain (Homo sapiens (Human), UniProt P56817). Kind of assay: BACE1 HTRF FRET Assay. Type of assay: biochemical. The following applies: Ki calculated from IC50 using the Cheng-Prusoff equation; QSY7-APPswe-Eu substrate, pH 5.0; read-out: BACE-1 Ki. An outline of the steps: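 Purified BACE1 catalytic domain (3 nM as added) is preincubated with inhibitor for 30 min at 30 °C in 20 mM Na-acetate pH 5.0, 10% glycerol, 0.1% Brij-35, 7.5% DMSO. QSY7-APP^swe-Eu substrate (200 nM final) is then cleaved for 1.5 h at 30 °C and read as time-resolved 620 nm fluorescence. IC50s come from nonlinear regression, and Ki from Cheng-Prusoff using substrate Km 8 μM.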
Sequence of Recombinant human soluble BACE1 catalytic domain (P56817 75-416): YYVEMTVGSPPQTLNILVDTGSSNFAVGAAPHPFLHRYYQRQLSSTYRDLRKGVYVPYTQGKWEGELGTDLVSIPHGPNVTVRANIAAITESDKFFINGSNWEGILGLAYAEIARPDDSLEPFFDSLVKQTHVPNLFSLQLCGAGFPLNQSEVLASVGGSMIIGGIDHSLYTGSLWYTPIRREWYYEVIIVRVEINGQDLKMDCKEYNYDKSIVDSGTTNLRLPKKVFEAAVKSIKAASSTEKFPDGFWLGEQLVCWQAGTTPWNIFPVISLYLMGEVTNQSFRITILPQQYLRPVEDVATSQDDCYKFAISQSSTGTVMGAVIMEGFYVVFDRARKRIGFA

Sequence of purified human autoBACE-2 (Q9Y5Z0 63-473 limits assumed): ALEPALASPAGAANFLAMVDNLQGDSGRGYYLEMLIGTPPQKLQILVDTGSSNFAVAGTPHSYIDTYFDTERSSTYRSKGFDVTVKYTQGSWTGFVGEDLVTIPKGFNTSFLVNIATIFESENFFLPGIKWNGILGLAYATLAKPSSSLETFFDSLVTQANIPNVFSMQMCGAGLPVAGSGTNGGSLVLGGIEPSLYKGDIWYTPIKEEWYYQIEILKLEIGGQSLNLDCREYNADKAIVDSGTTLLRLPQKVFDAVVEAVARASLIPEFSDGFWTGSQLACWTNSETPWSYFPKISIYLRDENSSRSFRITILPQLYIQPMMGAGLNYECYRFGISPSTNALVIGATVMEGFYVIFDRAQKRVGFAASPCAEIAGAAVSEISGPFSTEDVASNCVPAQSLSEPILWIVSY

Take `C[C@H]1C[C@H]2C(=O)N(C)C(=N)N[C@@]2(c2cc(Oc3ccc(F)cn3)ccc2F)CO1` [Example 68, (4aR,6S,8aS)-8a-(2-fluoro-5-((5-fluoropyridin-2-yl)oxy)phenyl)-2-imino-3,6-dimethylhexahydro-1H-pyrano[3,4-d]pyrimidin-4(4aH)-one]: the results for the Ki in assay [1] and in assay [2] were 71.3 nM and 157 nM, respectively.

Consider `C[C@H]1C[C@H]2C(=O)N(C)C(=N)N[C@@]2(c2cc(Oc3ncncc3F)ccc2F)CO1` [Example 69, (4aR,6S,8aS)-8a-(2-fluoro-5-((5-fluoropyrimidin-4-yl)oxy)phenyl)-2-imino-3,6-dimethylhexahydro-1H-pyrano[3,4-d]pyrimidin-4(4aH)-one], for which the values for the Ki in assay [1] and in assay [2] were 6.78 nM and 11 nM, respectively.

Regarding `Cc1nccnc1Oc1ccc(F)c([C@]23CO[C@@H](C)C[C@H]2C(=O)N(C)C(=N)N3)c1` [Example 70, (4aR,6S,8aS)-8a-(2-fluoro-5-((3-methylpyrazin-2-yl)oxy)phenyl)-2-imino-3,6-dimethylhexahydro-1H-pyrano[3,4-d]pyrimidin-4(4aH)-one], the Ki in assay [1] was 235 nM; in assay [2], 402 nM.

As for `COc1ccnc(Oc2ccc(F)c([C@]34CO[C@@H](C)C[C@H]3C(=O)N(C)C(=N)N4)c2)c1` [Example 71, (4aR,6S,8aS)-8a-(2-fluoro-5-((4-methoxypyridin-2-yl)oxy)phenyl)-2-imino-3,6-dimethylhexahydro-1H-pyrano[3,4-d]pyrimidin-4(4aH)-one], the Ki is 15 nM in assay [1] and 39.9 nM in assay [2].

Turning to `C[C@H]1C[C@H]2C(=O)N(C)C(=N)N[C@@]2(c2cc(Oc3ncccc3Cl)ccc2F)CO1` [Example 72, (4aR,6S,8aS)-8a-(5-((3-chloropyridin-2-yl)oxy)-2-fluorophenyl)-2-imino-3,6-dimethylhexahydro-1H-pyrano[3,4-d]pyrimidin-4(4aH)-one], the Ki in assay [1] is 9.67 nM; in assay [2] it was 37.6 nM.

For the molecule `Cc1cccnc1Oc1ccc(F)c([C@]23CO[C@@H](C)C[C@H]2C(=O)N(C)C(=N)N3)c1` [Example 73, (4aR,6S,8aS)-8a-(2-fluoro-5-((3-methylpyridin-2-yl)oxy)phenyl)-2-imino-3,6-dimethylhexahydro-lH-pyrano[3,4-d]pyrimidin-4(4aH)-one], the Ki in assay [1] was 32.3 nM; in assay [2], 295 nM.

In the case of `C[C@H]1C[C@H]2C(=O)N(C)C(=N)N[C@@]2(c2cc(Oc3ccncc3F)ccc2F)CO1` [Example 74, (4aR,6S,8aS)-8a-(2-fluoro-5-((3-fluoropyridin-4-yl)oxy)phenyl)-2-imino-3,6-dimethylhexahydro-1H-pyrano[3,4-d]pyrimidin-4(4aH)-one], the Ki was 31.5 nM in assay [1] and 44.3 nM in assay [2].

As for `C[C@H]1C[C@H]2C(=O)N(C)C(=N)N[C@@]2(c2cc(Oc3ccccn3)ccc2F)CO1` [Example 76, (4aR,6S,8aS)-8a-(2-fluoro-5-(pyridin-2-yloxy)phenyl)-2-imino-3,6-dimethylhexahydro-1H-pyrano[3,4-d]pyrimidin-4(4aH)-one], the Ki is 13.4 nM in assay [1] and 31.7 nM in assay [2].

For `C[C@H]1C[C@H]2C(=O)N(C)C(=N)N[C@@]2(c2cc(Oc3cc4ccccc4cn3)ccc2F)CO1` [Example 77, (4aR,6S,8aS)-8a-(2-fluoro-5-(isoquinolin-3-yloxy)phenyl)-2-imino-3,6-dimethylhexahydro-1H-pyrano[3,4-d]pyrimidin-4(4aH)-one], the results for the Ki in assay [1] and in assay [2] were 242 nM and 1450 nM, respectively.

On to `C[C@H]1C[C@H]2C(=O)N(C)C(=N)N[C@@]2(c2cc(Oc3cncc(F)c3)ccc2F)CO1` [Example 78, (4aR,6S,8aS)-8a-(2-fluoro-5-((5-fluoropyridin-3-yl)oxy)phenyl)-2-imino-3,6-dimethylhexahydro-1H-pyrano[3,4-d]pyrimidin-4(4aH)-one], for which the results for the Ki in assay [1] and in assay [2] were 32.9 nM and 20 nM, respectively.

As to `C[C@H]1C[C@H]2C(=O)N(C)C(=N)N[C@@]2(c2cc(Oc3ncc(F)cc3F)ccc2F)CO1` [Example 79, (4aR,6S,8aS)-8a-(5-((3,5-difluoropyridin-2-yl)oxy)-2-fluorophenyl)-2-imino-3,6-dimethylhexahydro-1H-pyrano[3,4-d]pyrimidin-4(4aH)-one], the Ki in assay [1] is 41.3 nM; in assay [2], 43.5 nM.

With `C[C@H]1C[C@H]2C(=O)N(C)C(=N)N[C@@]2(c2cc(Oc3cc(F)cnc3F)ccc2F)CO1` [Example 80, (4aR,6S,8aS)-8a-(5-((2,5-difluoropyridin-3-yl)oxy)-2-fluorophenyl)-2-imino-3,6-dimethylhexahydro-1H-pyrano[3,4-d]pyrimidin-4(4aH)-one], the Ki in assay [1] was 22.3 nM; in assay [2], 8.5 nM.

As to `C[C@H]1C[C@H]2C(=O)N(C)C(=N)N[C@@]2(c2cc(Oc3cccnc3)ccc2F)CO1` [Example 81, (4aR,6S,8aS)-8a-(2-fluoro-5-(pyridin-3-yloxy)phenyl)-2-imino-3,6-dimethylhexahydro-1H-pyrano[3,4-d]pyrimidin-4(4aH)-one], the Ki in assay [1] was 20.7 nM; in assay [2] it was 26.8 nM.

Regarding `C[C@H]1C[C@H]2C(=O)N(C)C(=N)N[C@@]2(c2cc(Oc3cc(F)ccc3F)ccc2F)CO1` [Example 82, (4aR,6S,8aS)-8a-(5-(2,5-difluorophenoxy)-2-fluorophenyl)-2-imino-3,6-dimethylhexahydro-1H-pyrano[3,4-d]pyrimidin-4(4aH)-one], the Ki in assay [1] was 23.5 nM; in assay [2], 45.7 nM.

Turning to `CN1C(=N)N[C@@]2(c3cc(Br)ccc3F)CO[C@@H](c3ccc(F)cc3)C[C@H]2C1=O` [Example 83, (4aR,6R,8aS)-8a-(5-bromo-2-fluorophenyl)-6-(4-fluorophenyl)-2-imino-3-methylhexahydro-1H-pyrano[3,4-d]pyrimidin-4(4aH)-one], the Ki in assay [1] is 24.2 nM; in assay [2], 60.5 nM.

Regarding `CN1C(=N)N[C@@]2(c3cc(O)ccc3F)CO[C@@H](c3ccc(F)cc3)C[C@H]2C1=O` [Example 84, (4aR,6R,8aS)-8a-(2-fluoro-5-hydroxyphenyl)-6-(4-fluorophenyl)-2-imino-3-methylhexahydro-1H-pyrano[3,4-d]pyrimidin-4(4aH)-one], the results for the Ki in assay [1] and in assay [2] were 17.2 nM and 70 nM, respectively.

Regarding `CN1C(=N)N[C@@]2(c3cc(OCC4CC4)ccc3F)CO[C@@H](c3ccc(F)cc3)C[C@H]2C1=O` [Example 85, (4aR,6R,8aS)-8a-(5-(cyclopropylmethoxy)-2-fluorophenyl)-6-(4-fluorophenyl)-2-imino-3-methylhexahydro-1H-pyrano[3,4-d]pyrimidin-4(4aH)-one], the Ki in assay [1] was 0.76 nM; in assay [2] it was 3.2 nM.

Turning to `CN1C(=N)N[C@@]2(c3cc(Br)ccc3F)COCC[C@H]2C1=O` [Example 86, (4aR,8aS)-8a-(5-bromo-2-fluorophenyl)-2-imino-3-methylhexahydro-IH-pyrano[3,4-d]pyrimidin-4(4aH)-one], the Ki in assay [1] was 298 nM; in assay [2], 1200 nM.

For the molecule `CN1C(=N)N[C@@]2(c3cc(Oc4ncccc4F)ccc3F)COCC[C@H]2C1=O` [Example 87, (4aR,8aS)-8a-(2-fluoro-5-((3-fluoropyridin-2-yl)oxy)phenyl)-2-imino-3-methylhexahydro-1H-pyrano[3,4-d]pyrimidin-4(4aH)-one], the figures for the Ki in assay [1] and in assay [2] were 13.5 nM and 27 nM, respectively.

As to `CN1C(=N)N[C@@]2(c3cc(OCC4CC4)ccc3F)COCC[C@H]2C1=O` [Example 88, (4aR,8aS)-8a-(5-(cyclopropylmethoxy)-2-fluorophenyl)-2-imino-3-methylhexahydro-1H-pyrano[3,4-d]pyrimidin-4(4aH)-one], the results for the Ki in assay [1] and in assay [2] were 5.96 nM and 44 nM, respectively.

Consider `COC[C@H]1C[C@H]2C(=O)N(C)C(=N)N[C@@]2(c2cc(Br)ccc2F)CO1` [Example 89, (4aR,6R,8aS)-8a-(5-bromo-2-fluorophenyl)-2-imino-6-(methoxymethyl)-3-methylhexahydro-1H-pyrano[3,4-d]pyrimidin-4(4aH)-one], for which the Ki in assay [1] is 304 nM; in assay [2], 910 nM.

As to `COC[C@H]1C[C@H]2C(=O)N(C)C(=N)N[C@@]2(c2cc(OCC3CC3)ccc2F)CO1` [Example 90, (4aR,6R,8aS)-8a-(5-(cyclopropylmethoxy)-2-fluorophenyl)-2-imino-6-(methoxymethyl)-3-methylhexahydro-1H-pyrano[3,4-d]pyrimidin-4(4aH)-one], the Ki is 8.84 nM in assay [1] and 21 nM in assay [2].

In the case of `COc1cc([C@]23CO[C@@H](C)C[C@H]2C(=O)N(C)C(=N)N3)c(F)cn1` [Example 91, (4aR,6S,8aS)-8a-(5-fluoro-2-methoxypyridin-4-yl)-2-imino-3,6-dimethylhexahydro-1H-pyrano[3,4-d]pyrimidin-4(4aH)-one], the Ki is 155 nM in assay [1] and 468 nM in assay [2].

In the case of `C[C@H]1C[C@H]2C(=O)N(C)C(=N)N[C@@]2(c2cc(OCC3CC3)ncc2F)CO1` [Example 92, (4aR,6S,8aS)-8a-(2-(cyclopropylmethoxy)-5-fluoropyridin-4-yl)-2-imino-3,6-dimethylhexahydro-1H-pyrano[3,4-d]pyrimidin-4(4aH)-one], the figures for the Ki in assay [1] and in assay [2] were 2.19 nM and 11.1 nM, respectively.

As for `C=CCCOc1cc([C@]23CO[C@@H](C)C[C@H]2C(=O)N(C)C(=N)N3)c(F)cn1` [Example 93, (4aR,6S,8aS)-8a-(2-(but-3-en-1-yloxy)-5-fluoropyridin-4-yl)-2-imino-3,6-dimethylhexahydro-1H-pyrano[3,4-d]pyrimidin-4(4aH)-one], the values for the Ki in assay [1] and in assay [2] were 4.46 nM and 16.1 nM, respectively.

Usually Ki stands for a dissociation constant, usually derived from enzyme kinetics or from competition with a known ligand.
